Peptide text beside a SMILES is read from it.
Tests used:
[1] = target: T1, Beta-secretase 1 (Homo sapiens, UniProt P56817); assay: Inhibition of BACE1 using peptide substrate Rh-EVNLDAEFKQuencher by fluorescence resonance energy transfer (FRET) assay
[2] = target: T1, Beta-secretase 1; assay: Inhibition of BACE1 using peptide substrate Rh-EVNLDAEFKQuencher at 100 uM by fluorescence resonance energy transfer (FRET) assay

T1 sequence (P56817 whole entry): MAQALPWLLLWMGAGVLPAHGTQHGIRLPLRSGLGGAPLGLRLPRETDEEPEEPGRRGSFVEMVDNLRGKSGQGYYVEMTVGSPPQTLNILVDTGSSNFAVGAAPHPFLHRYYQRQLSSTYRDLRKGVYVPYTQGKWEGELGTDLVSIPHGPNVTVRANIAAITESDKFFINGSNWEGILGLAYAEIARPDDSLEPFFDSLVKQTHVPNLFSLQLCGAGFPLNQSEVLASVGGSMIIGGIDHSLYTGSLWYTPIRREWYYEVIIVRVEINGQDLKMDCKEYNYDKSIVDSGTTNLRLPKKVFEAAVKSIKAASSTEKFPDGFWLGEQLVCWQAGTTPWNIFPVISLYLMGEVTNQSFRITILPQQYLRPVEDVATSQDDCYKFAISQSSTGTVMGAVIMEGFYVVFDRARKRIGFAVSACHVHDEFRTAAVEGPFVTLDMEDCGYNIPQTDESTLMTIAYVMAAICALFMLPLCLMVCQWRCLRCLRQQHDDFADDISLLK

IC50 [1] [µM]	inhibition [2] [%]	SMILES
34.5	75	N#Cc1c(NC(=O)COC(=O)CSc2nc(-c3ccccc3)cc(-c3ccccc3)n2)sc2c1CCCC2
12.2	87	N#Cc1c(NC(=O)C(F)(F)C(F)(F)C(F)(F)C(F)(F)C(=O)Nc2sc3c(c2C#N)CCCCCC3)sc2c1CCCCCC2
3		Cc1nc(NC(=NC(=O)Nc2ccccc2)NC(=O)Nc2ccccc2)nc2ccccc12
2.8	80	COc1ccc(CCNC(=O)CSc2nc3ccc(Nc4nc(N5CCCCC5)nc(N5CCCCC5)n4)cc3s2)cc1OC
0.12	100	CC[C@H](C)[C@H](NC(=O)[C@H](CCC(=O)O)NC(=O)[C@H](CCC(=O)O)NC(=O)[C@@H](NC(=O)[C@@H](N)CCCCN)[C@@H](C)O)C(=O)N[C@@H](CO)C(=O)N[C@@H](CCC(=O)O)C(=O)N[C@H](C(=O)N[C@@H](CC(N)=O)C(=O)N[C@@H](CC(C)C)[C@@H](O)CC(=O)N[C@H](C(=O)N[C@@H](C)C(=O)N[C@@H](CCC(=O)O)C(=O)N[C@@H](Cc1ccccc1)C(=O)O)C(C)C)C(C)C (HELM PEPTIDE1{K.T.E.E.I.S.E.V.N.[CC(C)C[C@H](N[*:1])[C@@H](O)CC(=O)[*:2]].V.A.E.F}$$$$V2.0)
118	45	N#Cc1c(-c2ccc(F)cc2)cc(-c2ccccc2)nc1SCC(=O)NC12CC3CC(CC(C3)C1)C2
> 100	78	O=C(Nc1ncc(Cc2cccc(Cl)c2Cl)s1)c1ccc(CSc2nnc(-c3ccncc3)n2-c2ccccc2)cc1
50	80	CCc1nnc(NC(=O)CSc2nc(-c3ccc(F)cc3)cc(-c3ccccc3)c2C#N)s1
	100	Cc1nc(N/C(=N\C(=O)Nc2ccccc2)NC(=O)Nc2ccccc2)nc2ccccc12
20	100	N#Cc1c(-c2ccccc2)cc(-c2ccccc2)nc1SCC(=O)Nc1cccc([N+](=O)[O-])c1
50	68	COc1ccc(-c2cc(-c3ccc(Cl)cc3)c(C#N)c(SCC(=O)N(c3ccccc3)c3ccc4ccccc4c3)n2)cc1
100	75	O=C(CSc1nnc(Cc2c[nH]c3ccccc23)n1Cc1ccccc1)c1c[nH]c2ccccc12
28.6	80	Cc1cc(C)nc(N/C(=N\C(=O)N2c3ccccc3Sc3ccccc32)Nc2cccc([N+](=O)[O-])c2)n1
90	50	O=S(=O)(c1ccc(Br)cc1)N(c1cnn(Cc2ccc(Cl)c(Cl)c2)c1)S(=O)(=O)c1ccc(Br)cc1
21	83	Cc1ccc(NC(=O)Cc2nnc(SCC(=O)Nc3nc(-c4ccccc4)cs3)n2C)cc1
100	48	Cc1nn(-c2ccccc2)c(Cl)c1C1Nc2ccccc2-c2nnc(SCc3ccccc3)nc2O1 (configuration not stated)
10.2	90	O=C(CSc1nc2ccc(Nc3nc(N4CCCCC4)nc(N4CCCCC4)n3)cc2s1)Nc1ccccc1F

Reference: ChEMBL document CHEMBL1782041, “Novel non-peptide beta-secretase inhibitors derived from structure-based virtual screening and bioassay” (Bioorg Med Chem Lett, 2009)
